Assay results published in the OligoGym collection.
Values joined by “and” are separate entries in the source; they are usually repeats but may differ in a detail not shown here. Identical values can stand only once. After the bases stand the sugars from the 5' end (letter, count) and the backbone: PS all phosphorothioate, else s phosphorothioate and o phosphodiester by linkage. Methylation of C is not given here. e = 2'-O-(2-methoxyethyl) (MOE); k = constrained ethyl (cEt); d = 2'-deoxy (DNA)

Target: APOL1
Conditions: ASO

Row | Sequence | target mRNA inhibition (A431, 0.0156 µM) | target mRNA inhibition (A431, 0.0625 µM) | target mRNA inhibition (A431, 0.25 µM) | target mRNA inhibition (A431, 1 µM) | target mRNA inhibition (A431, 2 µM) | target mRNA inhibition (A431, 0.04 µM)
1 | GAACGCAATGCTGACT (sugars k2 d4 e3 k2 d5, PS) | 20% | 42% | 77% | 92% | 95% | –
2 | GAACGCAATGCTGACT (sugars k3 d10 k3, PS) | – | 14% | 50% | 76% | – | –
3 | GAAGATTGGCTCTGGC (sugars k3 d4 k3 e1 d5, PS) | – | – | – | – | 70% | –
4 | GAAGATTGGCTCTGGC (sugars kddddkekekeddddd, PS) | – | – | – | – | 21% | –
5 | GAAGATTGGCTCTGGC (sugars kekddddeekkddddd, PS) | – | – | – | – | 87% | –
6 | GAAGATTGGCTCTGGC (sugars kkddddkekekkdddd, PS) | – | – | – | – | 10% | –
7 | GAAGCTTTAAACTCAG (sugars kkddddkekekddddd, PS) | – | – | – | – | 84% | –
8 | GAATTATGGAATTGCA (sugars k4 d9 k3, PS) | – | 59% | 82% | 92% | – | –
9 | GAATTATGGAATTGCA (sugars kkddddkekekddddd, PS) | – | – | – | – | 51% | –
10 | GAGAACATTGAAACAC (sugars k3 d10 k3, PS) | – | 19% | 65% | 86% | – | –
11 | GAGTATTGTTTTTGTG (sugars k3 d4 k3 e1 d5, PS) | – | – | – | – | 88% | –
12 | GAGTATTGTTTTTGTG (sugars kekddddeekkddddd, PS) | – | – | – | – | 90% | –
13 | GAGTATTGTTTTTGTG (sugars kkddddekekeddddd, PS) | 40% | 78% | 92% | 97% | 98% | 47% and 50%
14 | GAGTATTGTTTTTGTG (sugars kkkddddkekeddddd, PS) | – | – | – | – | 81% | –
15 | GAGTCATTAGTGCTAT (sugars k4 d9 k3, PS) | – | 53% | 77% | 85% | – | –
16 | GAGTCATTTGCTAGGT (sugars k4 d9 k3, PS) | – | 78% | 89% | 92% | – | –
17 | GATTCTGTGTGCTCAC (sugars k4 d9 k3, PS) | – | 46% | 72% | 87% | – | –
18 | GCAAGGCTAAGTTCCG (sugars k4 d9 k3, PS) | – | 79% | 92% | 97% | – | –
19 | GCAATGCTGACTTGGC (sugars kkddddkekekkdddd, PS) | 5% | 12% | 44% | 80% | 91% | –
20 | GCAGTTTCATATTCAC (sugars k4 d9 k3, PS) | – | 75% | 92% | 98% | – | –
21 | GCAGTTTTGTAAGTGC (sugars k3 d4 k3 e1 d5, PS) | – | – | – | – | 76% | –
22 | GCTAATTTTCTGACTG (sugars k2 d4 e3 k2 d5, PS) | 35% | 62% | 81% | 92% | 94% | –
23 | GCTAATTTTCTGACTG (sugars k3 d4 k3 e1 d5, PS) | 2% | 46% | 76% | 87% | 92% | –
24 | GCTAATTTTCTGACTG (sugars kdddddkekekddddd, PS) | – | – | – | – | 98% | –

Row | Sequence | target mRNA inhibition (A431, 0.0156 µM) | target mRNA inhibition (A431, 0.0625 µM) | target mRNA inhibition (A431, 0.25 µM) | target mRNA inhibition (A431, 1 µM) | target mRNA inhibition (A431, 2 µM) | target mRNA inhibition (A431, 0.04 µM)
25 | GCTATGGAAATGCCAA (sugars k4 d9 k3, PS) | – | 28% | 61% | 81% | – | –
26 | GCTGGGTCTGTAGTGG (sugars k4 d9 k3, PS) | – | 49% | 70% | 82% | – | –
27 | GCTTTAAACTCAGGTG (sugars kkddddekekeddddd, PS) | 14% | 41% | 62% | 86% | 92% | –
28 | GCTTTAAACTCAGGTG (sugars kkkddddkekeddddd, PS) | – | – | – | – | 82% | –
29 | GGAAATGAACGCAATG (sugars k4 d9 k3, PS) | – | 37% | 71% | 87% | – | –
30 | GGAATTATGGAATTGC (sugars kkkddddkdkdkdddd, PS) | – | – | – | – | 76% | –
31 | GGCAGTTTTGTAAGTG (sugars k2 d4 e3 k2 d5, PS) | – | – | – | – | 80% | –
32 | GGGAATTATGGAATTG (sugars k2 d4 e3 k2 d5, PS) | – | – | – | – | 86% | –
33 | GGGAATTATGGAATTG (sugars k4 d9 k3, PS) | – | 48% and 59% | 70% and 67% | 80% and 77% | – | –
34 | GGGTTATGAAATTATT (sugars kkddddekekeddddd, PS) | – | – | – | – | 88% | –
35 | GGTTCAAAAGCAGCAT (sugars k3 d4 k3 e1 d5, PS) | – | – | – | – | 74% | –
36 | GGTTCAAAAGCAGCAT (sugars kkkddddkekeddddd, PS) | – | – | – | – | 70% | –
37 | GGTTGTCCAGAGCTTT (sugars k4 d9 k3, PS) | – | 100% | 84% | 91% | – | –
38 | GTAAGTATTGCCAGCT (sugars kkkddddkekekdddd, PS) | – | – | – | – | 73% | –
39 | GTAGAATGAGCAGGTC (sugars k4 d9 k3, PS) | – | 84% | 97% | 99% | – | –
40 | GTATTGTTTTTGTGGG (sugars kkddddkekekkdddd, PS) | – | – | – | – | 39% | –
41 | GTATTTCTTGATGTGG (sugars k3 d4 k3 e1 d5, PS) | – | – | – | – | 98% | –
42 | GTATTTCTTGATGTGG (sugars k3 d5 k3 d5, PS) | – | – | 95% and 98% and 99% | 97% and 99% and 100% | 99% and 100% | –
43 | GTATTTCTTGATGTGG (sugars kekddddeekkddddd, PS) | – | – | – | 99% | 99% | 70%
44 | GTATTTCTTGATGTGG (sugars kkdddddkekeddddd, PS) | 59% | 89% | 97% | 98% and 99% | 98% | 64%
45 | GTCTAAAGTAAACTGC (sugars k4 d9 k3, PS) | – | – | 65% and 83% | 81% and 89% | – | –
46 | GTGAGTATTGTTTTTG (sugars kkddddekekeddddd, PS) | – | – | – | – | 93% | –
47 | GTGTATTTCTTGATGT (sugars k2 d4 e3 k2 d5, PS) | 18% | 51% | 79% | 91% | 96% | –
48 | GTTATATTTGATCCTC (sugars kdddddkekekddddd, PS) | 26% | 56% | 78% | 92% | 95% | –

Row | Sequence | target mRNA inhibition (A431, 0.0156 µM) | target mRNA inhibition (A431, 0.0625 µM) | target mRNA inhibition (A431, 0.25 µM) | target mRNA inhibition (A431, 1 µM) | target mRNA inhibition (A431, 2 µM) | target mRNA inhibition (A431, 0.04 µM)
49 | GTTATATTTGATCCTC (sugars kkddddkekekddddd, PS) | – | – | – | – | 80% | –
50 | GTTATGAAATTATTGG (sugars kdddddkekekddddd, PS) | – | – | – | – | 73% | –
51 | GTTATGAAATTATTGG (sugars kkddddekekeddddd, PS) | – | – | – | – | 68% | –
52 | GTTATGAAATTATTGG (sugars kkddddkekekddddd, PS) | – | – | – | – | 83% | –
53 | GTTCAAAAGCAGCATT (sugars k3 d4 k3 e1 d5, PS) | – | – | – | – | 80% | –
54 | GTTCAAAAGCAGCATT (sugars kkkddddkekekdddd, PS) | – | – | – | – | 24% | –
55 | GTTCTAACTCTTGGGC (sugars kdddddkekekddddd, PS) | – | – | – | – | 28% | –
56 | GTTCTAACTCTTGGGC (sugars kddddkekekeddddd, PS) | – | – | – | – | 77% | –
57 | GTTTACTTACCGGGTA (sugars k4 d9 k3, PS) | – | 47% and 38% | – | 84% and 63% | – | –
58 | GTTTTATGGAGTCATT (sugars k4 d9 k3, PS) | – | 51% and 34% | 78% and 70% | 92% and 84% | – | –
59 | GTTTTGTAAGTGCAAC (sugars k2 d4 e3 k2 d5, PS) | – | – | – | – | 83% | –
60 | GTTTTGTAAGTGCAAC (sugars kkddddekekeddddd, PS) | – | – | – | – | 86% | –
61 | TAAGTATTGCCAGCTA (sugars k2 d4 e3 k2 d5, PS) | – | – | – | – | 79% | –
62 | TAAGTATTGCCAGCTA (sugars kkkddddkekeddddd, PS) | – | – | – | – | 78% | –
63 | TAAGTGCTTTGATTCG (sugars k4 d9 k3, PS) | – | 64% and 82% | 87% and 92% | 94% and 96% | – | –
64 | TAATTCTATTAGAGGG (sugars kkddddekekeddddd, PS) | – | – | – | – | 46% | –
65 | TACTTCTGTTAGATAC (sugars k4 d9 k3, PS) | – | 47% | 76% | 92% | – | –
66 | TATATTTGATCCTCAA (sugars kddddkekekeddddd, PS) | – | – | – | – | 75% | –
67 | TATTTCTTGATGTGGT (sugars k3 d4 k3 e1 d5, PS) | 45% | 78% | 95% | 98% | 99% | –
68 | TATTTCTTGATGTGGT (sugars kkddddekekeddddd, PS) | 36% | 66% | 90% | 98% and 96% | 99% | 53% and 50%
69 | TATTTCTTGATGTGGT (sugars kkddddkdkdkddddd, PS) | 40% | 71% | 91% | 96% | 97% | –
70 | TATTTCTTGATGTGGT (sugars kkddddkekekddddd, PS) | 44% | 77% | 92% | 96% | 97% | –
71 | TCAACACATCATTGGG (sugars k4 d9 k3, PS) | – | 38% | 73% | 90% | – | –
72 | TCAGATGGGTACTTCT (sugars k2 d4 e4 k2 d4, PS) | – | – | – | – | 78% | –
